The text below walks through data of EP1035837B1, “LIPID COMPOSITIONS AND THEIR USE” (PHARES PHARMACEUTICAL RESEARCH N.V., priority 1997, dated 1999).

A short description of data set [1]: Pro-liposome gel formulation work: effect of ethanol and drug concentration on drug solubility, gel formation and gel appearance on storage. In kind it is physicochemical. The procedure: Approximately 10% of the total lipid and all the ethanol were weighed into an amber glass jar and mixed until all the lipid had dispersed. The antifungal drug was added to the lipid/ethanol mixture and further mixing was carried out to break up the drug particles. The remainder of the lipid was added and mixing was continued until all the lipid had been dispersed. The glycerol was then added and stirring was continued until a homogenous gel was obtained. It was clear and translucent with a sweet pleasant taste and could be applied directly to the mucosa. From about 1% to 10% or more, but preferably about 2% to 5% of a hydrophilic polymer or natural gum can be dispersed in powder form to render the preparation muco-adhesive. Compositions utilising lipid blends or lecithins which contain 45% PC, form liposomes on conversion with water. The drug is associated with the liposomes at very high levels, ie greater than 90%.
The preparation of the pro-liposome miconazole and clotrimazole gel was as described above. Early formulation work was carried out to find: • i) A gel formulation with enough ethanol to dissolve the miconazole and clotrimazole giving the gel a translucent appearance, but with […] as to obtain an optimum viscosity profile (Table 1). • ii) A gel formulation with not too much miconazole or clotrimazole to induce crystallisation of the drug in the gel (Table 2).
At this level of ethanol, miconazole drug crystallisation was not seen in 1% and 2.5% miconazole gals.

The conditions of data set [2]: cited from earlier work.
Data set [3] is described as follows: % encapsulation of drug into liposomes from pro-liposome gels (filtration through 200 nm filters, HPLC). The format is physicochemical. The conditions noted are these: Example 3 gel (90% PC, Tris base); average particle size of 1-5µ. The procedure: The % encapsulation of the antifungal drugs miconazole and clotrimazole was determined by filtration of the liposome dispersion and by HPLC analysis of the unfiltered and filtered solutions for drug content. The principle behind the filtration technique is that the liposomes (with encapsulated antifungal). can be passed through 200 nm filters, while unencapsulated drug particles remain too large to pass through the filters. Pro-liposome gels were prepared, containing 2.5% and 1% miconazole and 1% and 0.5% clotrimazole. […] The % encapsulation of drug would be expected to decrease if crystallisation occurred in the gels with time.
Using the method of Example 1, pro-liposome gels were made with various concentrations of amphotericin B. The % encapsulation of the amphotericin B into liposomes (in 0.1% suspensions of the gel formulations) was measured at 3 days, 1 month, 3 months and 6 months after pro-liposome preparation. The gels were stored at 4°C ;in sealed containers, protected from light (Table 4). […]

Setting [4] is: Table 1, ethanol 5 %, 45% PC lipid 20 %, drug 1 %, glycerol 74 %.
Setting [5] is: Table 2, ethanol 5 %, 45%PC 20 %, drug 1 %, glycerol 74 %.
Where [6] appears, read: Table 2, ethanol 5 %, 45%PC 20 %, glycerol 72.5 %, drug 2.5 % (clotrimazole line prints 1).
Setting [7] is: ethanol 2.5 %, 45% PC lipid 20 %, drug 1 %, glycerol 76.5 %.
[8] abbreviates: ethanol 10 %, 45% PC lipid 20 %, drug 1 %, glycerol 69 %.
The mark [9] stands for this setting: ethanol 15 %, 45% PC lipid 20 %, drug 1 %, glycerol 64 %.

Turning to `Clc1ccc(COC(Cn2ccnc2)c2ccc(Cl)cc2Cl)c(Cl)c1` (stereo not drawn) [Miconazole, 1-[2-dichloro-β-[2,4-dichlorobenzyl)oxyphenethyl]imidazole mononitrate], the “Initial Comments: drug solubility in ethanol + 10% of lipid” value is “Miconazole soluble in ethanol + 10% of lipid. Clear, golden gel formed with good viscosity” in data set [1] (setting [4]); “Miconazole soluble in ethanol + 10% of lipid. Clear, golden gel formed with good viscosity” in data set [1] (setting [5]); “Miconazole soluble in ethanol + 10% of lipid. Clear, golden gel formed with good viscosity” in data set [1] (setting [6]); “Miconazole soluble in ethanol + 10% of lipid. Not enough ethanol to disperse all the lipid and form a gel” in data set [1] (setting [7]); “Miconazole soluble in ethanol + 10% of lipid. Clear, golden gel formed with runny viscosity” in data set [1] (setting [8]); “Miconazole soluble in ethanol + 10% of lipid. Clear, golden gel formed with very runny viscosity” in data set [1] (setting [9]). The solubility in ethanol result in data set [2] is “very soluble”. Also, the solubility in water result in data set [2] is listed as “very slightly soluble”.
`Clc1ccccc1C(c1ccccc1)(c1ccccc1)n1ccnc1` [Clotrimazole, 1-(o-chloro-a,a-diphenylbenzyl)imidazole]: the “Initial Comments: drug solubility in ethanol + 10% of lipid” value in data set [1] (setting [4]) is “Clotrimazole soluble in ethanol + 10% of lipid. Clear, golden gel formed with good viscosity”; in data set [1] (setting [5]), “Clotrimazole soluble in ethanol + 10% of lipid. Clear, golden gel formed with good viscosity”; in data set [1] (setting [6]) it was “Clotrimazole soluble in ethanol + 10% of lipid. Clear, golden gel formed with good viscosity”; in data set [1] (setting [7]), “Clotrimazole insoluble in ethanol + 10% of lipid. Not enough ethanol to disperse all the lipid and form a gel”; in data set [1] (setting [8]), “Clotrimazole soluble in ethanol + 10% of lipid. Clear, golden gel formed with runny viscosity”; in data set [1] (setting [9]) it was “Clotrimazole soluble in ethanol + 10% of lipid. Clear, golden gel formed with very runny viscosity”. Further, in data set [2], the solubility in ethanol result is reported as “soluble”. In addition, the solubility in water entry in data set [2] is listed as “insoluble”.
Turning to `C[C@@H]1[C@H](O)[C@@H](C)/C=C/C=C/C=C/C=C/C=C/C=C/C=C/[C@H](O[C@@H]2O[C@H](C)[C@@H](O)[C@H](N)[C@@H]2O)C[C@@H]2O[C@](O)(C[C@@H](O)C[C@@H](O)[C@H](O)CC[C@@H](O)C[C@@H](O)CC(=O)O[C@H]1C)C[C@H](O)[C@H]2C(=O)O` [Amphotericin B, amphotericin B], the “encapsulation into liposomes formed from the pro-liposome by addition of water” value in data set [3] is approximately 100%.
